Test results taken from US20170096492A1, “DOSAGE AND ADMINISTRATION OF ANTI-IGF-1R, ANTI-ErbB3 BISPECIFIC ANTIBODIES, USES THEREOF AND METHODS OF TREATMENT [sequence]” (Merrimack Pharmaceuticals, Inc., priority 2014, published 2017).
Entries after “also recorded” stand apart in the source; their conditions may differ.

Legend:
mTOR = mTOR (Homo sapiens, UniProt P42345); conditions: cited from earlier work
[1] = system: DU145 prostate cancer-derived xenograft tumors; test: DU145 xenograft PD, western blot; format: in vivo, mice; conditions: docetaxel 20 mpk i.p. single dose, tumors harvested Day 4
Description: (§1) For the PD studies described in FIGS. 6A-B and FIGS. 9 A-B, nu/nu female mice were inoculated with 8×10^6 DU145 or 5×10^6 BxPC-3 cells, respectively, in 1:1 Matrigel® suspension. […] Tumor lysates were generated and subjected to western blot analysis.

CAKI-1 xenografts = test: CAKI-1 xenograft PD, western blot; format: in vivo, mice; conditions: single agent; MM-141 30 mpk i.p. or everolimus 10 mpk orally, 2 doses; tumors harvested 24 hours after second dose
Method: For the PD study results shown in FIGS. 3A-B and FIGS. 5A-C, NOD/SCID female mice were inoculated with 12×10^6 CAKI-1 or 10×10^6 SK-ES-1 cells, respectively, in 1:1 Matrigel® suspension. […] Tumors were harvested 24 hours after the second dose of drug; lysates were generated and subjected to western blot analysis.

[2] = system: CFPAC-1 human pancreatic cancer cells; test: HRG mRNA expression by real time PCR; format: cell-based; conditions: 24 hours
Method: CFPAC-1 human pancreatic cancer cells were serum-starved by plating the cells in 2% serum-containing medium overnight, followed by treatment with vehicle, 500 nM gemcitabine, or 50 nM paclitaxel for 24 hours. Post-treatment, cell lysates were harvested, mRNA extracted, cDNA generated and changes in HRG mRNA expression evaluated by real time PCR. Bar graphs represent mean HRG mRNA expression relative to the geometric mean of three housekeeping genes (protein phosphatase 2 catalytic subunit alpha (PPP2CA), ribosomal protein L4 (RPL4), and glucuronidase beta (GUSB)), normalized to vehicle control.

[3] = system: CFPAC-1 pancreatic cancer cells; test: pAKT (Ser473) ELISA after chemotherapy and ligand stimulation; format: cell-based, human; conditions: then HRG 5 nM or IGF-1 50 nM 15 minutes
Method: CFPAC-1 pancreatic cancer cells were seeded at 65% confluence in 10% serum-containing medium on 96-well plates overnight. […] Following incubation, cells were treated with (FIG. 24A) HRG (5 nM) or (FIG. 24B) IGF-1 (50 nM) for 15 minutes, where indicated. After treatment, cells were harvested and protein lysates generated. Changes in pAKT (Ser473) levels across all treatments were evaluated by pAKT ELISA, respectively. FIGS. 24(A-B) are bar graphs showing pAKT levels relative to ligand alone stimulated signals, which were normalized to 1.
CFPAC-1 pancreatic cancer cells were seeded at 65% confluence in 10% serum-containing medium on 96-well plates overnight. […] Following incubation, cells were treated with (FIG. 25A) HRG (5 nM) or (FIG. 25B) IGF-1 (50 nM) for 15 minutes, where indicated. After treatment, cells were harvested and protein lysates generated. Changes in pAKT (Ser473) levels across all treatments were evaluated by pAKT ELISA, respectively. FIGS. 25(A-B) are bar graphs showing pAKT levels relative to ligand alone stimulated signals, which were normalized to 1.

[4] = system: BxPC-3 derived xenograft tumors; test: BxPC-3 xenograft PD, western blot; format: in vivo, mice; conditions: gemcitabine 150 mpk i.p. Day 0, 6; tumors harvested Day 7
Description: as §1

[5] = system: HepG2 hepatocellular carcinoma cells; test: HepG2 western blot, sorafenib with or without MM-141; format: cell-based; conditions: sorafenib 5 μM, 2 hours
Method: HepG2 cells were plated on 12 well dishes (3×10^5 cells per well) in 10% serum-containing media and incubated overnight. […] Following treatment, cells were harvested in lysis buffer containing protease and phosphatase inhibitors and analyzed by western blotting.

In the case of COc1ccc(-c2ccc3c(N4CCOC[C@@H]4C)nc(N4CCOC[C@@H]4C)nc3n2)cc1CO [AZD8055], the “selectivity against PI3K isoforms and ATM/DNA-PK” value (mTOR) is given as ~1,000 fold.

In the case of CC(=O)O[C@@]12CO[C@@H]1C[C@H](O)[C@@]1(C)C(=O)[C@H](O)C3=C(C)[C@@H](OC(=O)[C@H](O)[C@@H](NC(=O)OC(C)(C)C)c4ccccc4)C[C@@](O)([C@@H](OC(=O)c4ccccc4)[C@H]21)C3(C)C [docetaxel, Docetaxel], the “ErbB3 protein expression level” value [1] is reported as “up-regulated” and the “IGF-1R protein expression level” value [1] is reported as “up-regulated”.

With CO[C@H]1C[C@@H]2CC[C@@H](C)[C@@](O)(O2)C(=O)C(=O)N2CCCC[C@H]2C(=O)O[C@H]([C@H](C)C[C@@H]2CC[C@@H](OCCO)[C@H](OC)C2)CC(=O)[C@H](C)/C=C(\C)[C@@H](O)[C@@H](OC)C(=O)[C@H](C)C[C@H](C)/C=C/C=C/C=C/1C [everolimus, Everolimus, reference compound] the “total ErbB2” value (CAKI-1 xenografts) was “upregulation” and the “total IGF-1R” value (CAKI-1 xenografts) was “upregulation”.

In the case of Nc1ccn([C@@H]2O[C@H](CO)[C@@H](O)C2(F)F)c(=O)n1 [gemcitabine, Gemcitabine], the “HRG mRNA increase relative to vehicle control” value ([2]; 500 nM gemcitabine) is reported as “about 22 fold”, the “sensitivity to ligands, pAKT (Ser473)” value ([3]; gemcitabine 1 μM 24 hours) is reported as “increased sensitivity to HRG and IGF-1” and the “total ErbB3” value [4] is reported as “up-regulation and activation”. For the same compound, the “total IGF-1R” value [4] was “up-regulation and activation”.

For CC(=O)O[C@H]1C(=O)[C@@]2(C)[C@H]([C@H](OC(=O)c3ccccc3)[C@]3(O)C[C@H](OC(=O)[C@H](O)[C@@H](NC(=O)c4ccccc4)c4ccccc4)C(C)=C1C3(C)C)[C@]1(OC(C)=O)CO[C@@H]1C[C@@H]2O [paclitaxel, Paclitaxel, reference compound], the “HRG mRNA relative to vehicle control” value ([2]; 50 nM paclitaxel) was “at least doubles” and the “sensitivity to ligands, pAKT (Ser473)” value ([3]; paclitaxel 100 nM 24 hours) was “increased sensitivity to IGF-1”.

With CNC(=O)c1cc(Oc2ccc(NC(=O)Nc3ccc(Cl)c(C(F)(F)F)c3)cc2)ccn1 [sorafenib, Sorafenib] the ErbB3 level [5] was “up-regulated; also recorded: upregulation of ErbB3 activity” and the pAKT level [5] was “up-regulated”.
